# Source: patent US20090306133A1, “New Acetyl Coenzyme A Carboxylase (ACC) Inhibitors And Uses In Treatments Of Obesity And Diabetes Mellitus - 087” (ASTRAZENECA AB, priority 2007, published 2009)
# Columns and labels:
# [1] = biological target: Human recombinant Acetyl-CoA Carboxylase 2 (ACC2) (Homo sapiens, UniProt O00763); assay: Assay X: ACC2 inhibition, inorganic phosphate (malachite green); format: biochemical; details: Assay X: 37° C., 1.5 h, 5 min pre-incubation
# Method: (§1) Human recombinant Acetyl-CoA Carboxylase 1 and Acetyl-CoA Carboxylase 2 (ACC1 and ACC2) were assayed by determining the amount of inorganic phosphate (Pi) generated. Pre-incubation of 15 μL enzyme together with 0.75 μL DMSO+/−compound for 5 min was done before the reaction was initiated by the addition of 10 μL substrate. […] After 1.5 h the reaction was stopped by addition of 74 μL of water followed by extensive mixing, split and transfer of 2×40 μL to a read-plate encompassing 30 μL distilled H2O per well (n=2→n=4). Colour reaction was initiated by addition of 30 μL malachite green reagent per well and allowed 15 min before absorbance reading of the plates at 660 nm. The malachite green reagent was prepared by mixing 16.4 mL ammonium molybdate solution (7.5%), 1.64 mL Tween (11%) with 82 mL Malachite Green/H2SO4-solution (0.7 g Malachite Green to 1000 mL of 10% (v/v) H2SO4).
# (§2) All compounds were tested in triplicate at 10 different concentrations. Control compound (0, 50 and 100% effect) was included on each plate. […] Curve fitting was done using the following equation: y=(A+((B−A)/(1+((x/C)̂D)))) where A and B represents the curve bottom (% inhibition) and the total amplitude (% inhibition), respectively, whereas C and D are the apparent IC50 and curve slope, respectively.
# [2] = biological target: Human recombinant Acetyl-CoA Carboxylase 1 (ACC1) (Homo sapiens, UniProt Q13085); assay: Assay X: ACC1 inhibition, inorganic phosphate (malachite green); format: biochemical; details: Assay X: 37° C., 1.5 h, 5 min pre-incubation
# Method: as §1, §2
# Chain of Human recombinant Acetyl-CoA Carboxylase 2 (ACC2) (O00763 whole entry): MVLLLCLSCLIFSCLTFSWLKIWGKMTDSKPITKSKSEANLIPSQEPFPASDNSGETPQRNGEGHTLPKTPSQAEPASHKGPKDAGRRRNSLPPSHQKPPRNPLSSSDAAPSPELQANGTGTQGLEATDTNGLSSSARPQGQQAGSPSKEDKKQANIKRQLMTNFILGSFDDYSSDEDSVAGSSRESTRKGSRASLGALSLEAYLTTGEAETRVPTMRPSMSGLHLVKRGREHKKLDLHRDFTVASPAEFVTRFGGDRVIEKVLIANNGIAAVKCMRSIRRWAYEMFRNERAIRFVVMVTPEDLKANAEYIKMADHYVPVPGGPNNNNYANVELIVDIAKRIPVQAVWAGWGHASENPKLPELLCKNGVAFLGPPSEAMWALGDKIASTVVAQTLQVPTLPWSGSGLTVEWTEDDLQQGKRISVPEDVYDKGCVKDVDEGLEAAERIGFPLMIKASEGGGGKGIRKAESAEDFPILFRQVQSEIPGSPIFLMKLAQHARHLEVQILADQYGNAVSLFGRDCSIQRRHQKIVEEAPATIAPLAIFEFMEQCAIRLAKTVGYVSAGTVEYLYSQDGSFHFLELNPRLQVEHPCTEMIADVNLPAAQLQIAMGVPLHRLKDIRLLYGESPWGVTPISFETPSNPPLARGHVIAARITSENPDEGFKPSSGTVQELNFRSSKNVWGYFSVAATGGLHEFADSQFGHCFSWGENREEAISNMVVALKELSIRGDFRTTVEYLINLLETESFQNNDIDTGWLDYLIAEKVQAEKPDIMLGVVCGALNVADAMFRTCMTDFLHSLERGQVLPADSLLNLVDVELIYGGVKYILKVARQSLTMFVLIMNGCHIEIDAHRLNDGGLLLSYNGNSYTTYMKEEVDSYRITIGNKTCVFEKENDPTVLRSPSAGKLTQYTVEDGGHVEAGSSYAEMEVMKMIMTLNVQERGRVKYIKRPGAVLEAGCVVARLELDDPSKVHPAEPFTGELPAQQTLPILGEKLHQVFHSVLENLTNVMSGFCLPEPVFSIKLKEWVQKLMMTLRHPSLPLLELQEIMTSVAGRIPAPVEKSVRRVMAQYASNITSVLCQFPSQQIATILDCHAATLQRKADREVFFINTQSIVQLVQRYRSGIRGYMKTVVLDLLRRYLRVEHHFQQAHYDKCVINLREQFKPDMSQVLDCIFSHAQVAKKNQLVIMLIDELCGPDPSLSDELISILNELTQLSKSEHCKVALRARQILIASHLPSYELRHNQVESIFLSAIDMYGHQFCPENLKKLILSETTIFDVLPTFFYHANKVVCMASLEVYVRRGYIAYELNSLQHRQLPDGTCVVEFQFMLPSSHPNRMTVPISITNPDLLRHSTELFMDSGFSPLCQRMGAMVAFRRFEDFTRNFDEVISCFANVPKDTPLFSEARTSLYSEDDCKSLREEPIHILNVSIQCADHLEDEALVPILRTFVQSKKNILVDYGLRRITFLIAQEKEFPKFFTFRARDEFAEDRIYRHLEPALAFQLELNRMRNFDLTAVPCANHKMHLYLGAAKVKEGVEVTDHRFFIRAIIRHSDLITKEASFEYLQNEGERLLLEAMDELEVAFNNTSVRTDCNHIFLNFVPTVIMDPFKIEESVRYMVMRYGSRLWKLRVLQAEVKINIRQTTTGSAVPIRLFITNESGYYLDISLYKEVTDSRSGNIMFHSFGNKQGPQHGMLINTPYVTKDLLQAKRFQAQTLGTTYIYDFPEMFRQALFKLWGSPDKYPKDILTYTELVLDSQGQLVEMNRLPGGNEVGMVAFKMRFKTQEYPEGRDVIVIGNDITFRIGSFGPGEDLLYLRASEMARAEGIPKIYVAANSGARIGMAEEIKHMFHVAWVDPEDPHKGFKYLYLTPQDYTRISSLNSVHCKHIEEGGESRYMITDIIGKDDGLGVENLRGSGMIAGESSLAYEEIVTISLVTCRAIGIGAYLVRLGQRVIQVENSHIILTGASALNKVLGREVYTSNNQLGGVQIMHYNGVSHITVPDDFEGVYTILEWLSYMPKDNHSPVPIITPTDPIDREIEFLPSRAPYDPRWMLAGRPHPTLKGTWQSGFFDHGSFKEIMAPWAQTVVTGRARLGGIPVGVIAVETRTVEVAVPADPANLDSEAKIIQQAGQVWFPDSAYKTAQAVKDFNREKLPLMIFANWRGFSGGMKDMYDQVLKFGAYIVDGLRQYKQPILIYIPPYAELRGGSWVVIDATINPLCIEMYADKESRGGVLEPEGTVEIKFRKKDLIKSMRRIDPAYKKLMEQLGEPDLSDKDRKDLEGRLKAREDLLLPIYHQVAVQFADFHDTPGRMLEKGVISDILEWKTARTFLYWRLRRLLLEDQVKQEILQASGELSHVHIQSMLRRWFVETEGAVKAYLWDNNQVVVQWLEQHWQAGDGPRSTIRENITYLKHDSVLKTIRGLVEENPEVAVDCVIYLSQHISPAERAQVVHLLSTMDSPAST
IC50 [1] [nM],IC50 [2] [nM],SMILES
170,480,"CC(C)(C)OC(=O)NC[C@H]1CC[C@H](CNC(=O)c2cc(-c3ccc(N(CCO)CCO)nc3)nc3ccccc23)CC1 [Example 152, tert-Butyl{[trans-4-({[(2-{6-[bis(2-hydroxyethyl)amino]pyridin-3-yl}quinolin-4-yl)carbonyl]amino}-methyl)cyclohexyl]methyl}carbamate]"
270,2220,"CN(C)CCOC1CCN(c2cc(C(=O)NC[C@H]3CC[C@H](CNC(=O)OC(C)(C)C)CC3)c3ccccc3n2)CC1 [Example 211, tert-Butyl {[trans-4-({[(2-{4-[2-(dimethylamino)ethoxy]piperidin-1-yl}quinolin-4-yl)carbonyl]amino}methyl)cyclohexyl]methyl}carbamate]"
170,1100,"CC(C)(C)OC(=O)NC[C@H]1CC[C@H](CNC(=O)c2cc(N3CCC(CC(O)CN4CCOCC4)CC3)nc3ccccc23)CC1 (single isomer, unassigned) [Example 208, (R) or (S) tert-Butyl [(trans-4-{[({2-[4-(2-hydroxy-3-morpholin-4-ylpropyl)piperidin-1-yl]quinolin-4-yl}-carbonyl)amino]methyl}cyclohexyl)methyl]-carbamate]"
100,440,"CN(C)CCC1CCN(c2cc(C(=O)NC[C@H]3CC[C@H](CNC(=O)OC(C)(C)C)CC3)c3ccccc3n2)CC1 [Example 193, tert-butyl {[trans-4-({[(2-{4-[2-(dimethylamino)ethyl]piperidin-1-yl}quinolin-4-yl)carbonyl]amino}methyl)cyclohexyl]methyl}carbamate]"
50,510,"CC(C)(C)OC(=O)NC[C@H]1CC[C@H](CNC(=O)c2cc(N3CCC(CCN)CC3)nc3ccccc23)CC1 [Example 194, tert-Butyl [(trans-4-{[({2-[4-(2-aminoethyl)piperidin-1-yl]quinolin-4-yl}carbonyl)amino]methyl}cyclohexyl)methyl]carbamate]"
130,1040,"CC(C)(C)OC(=O)NC[C@H]1CC[C@H](CNC(=O)c2cc(N3CCC(CC(O)CN4CCOCC4)CC3)nc3ccccc23)CC1 (relative stereo) [Example 207, tert-Butyl[(trans-4-{[({2-[4-(2-hydroxy-3-morpholin-4-ylpropyl)piperidin-1-yl]quinolin-4-yl}-carbonyl)amino]methyl}cyclohexyl)methyl]-carbamate]"
160,1330,"CC(C)(C)OC(=O)NC[C@H]1CC[C@H](CNC(=O)c2cc(N3CCC(CCN4CCC(O)C4)CC3)nc3ccccc23)CC1 (relative stereo) [Example 230, tert-Butyl{[trans-4-({[(2-{4-[2-(3-hydroxypyrrolidin-1-yl)ethyl]piperidin-1-yl}quinolin-4-yl)carbonyl]amino}-methyl)cyclohexyl]-methyl}carbamate]"
160,3500,"CC(C)(C)OC(=O)NC[C@H]1CC[C@H](CNC(=O)c2cc(-c3ccc(N4CNC(=O)C4)nc3)nc3ccccc23)CC1 [Example 172, tert-Butyl[(trans-4-{[({2-[6-(4-oxoimidazolidin-1-yl)-pyridin-3-yl]quinolin-4-yl}carbonyl)amino]-methyl}cyclohexyl)-methyl]carbamate]"
160,610,"CC(C)(C)OC(=O)NC[C@H]1CC[C@H](CNC(=O)c2cc(-c3ccc(N4CCC(O)CC4)nc3)nc3ccccc23)CC1 [Example 151, tert-Butyl[(trans-4-{[({2-[6-(4-hydroxypiperidin-1-yl)pyridin-3-yl]-quinolin-4-yl}-carbonyl)amino]methyl}cyclohexyl)methyl]carbamate]"
50,190,"CC(C)(C)OC(=O)NC[C@H]1CC[C@H](CNC(=O)c2cc(-c3ccc(N4CCNCC4)nc3)nc3ccccc23)CC1 [Example 154, tert-Butyl({trans-4-[({[2-(6-piperazin-1-ylpyridin-3-yl)-quinolin-4-yl]-carbonyl}amino)methyl]cyclohexyl}methyl)carbamate]"
60,210,"CC(C)(C)OC(=O)NC[C@H]1CC[C@H](CNC(=O)c2cc(-c3ccc(N)cc3)nc3ccccc23)CC1 [Example 218, tert-Butyl ({trans-4-[({[2-(4-aminophenyl)quinolin-4-yl]carbonyl}amino)-methyl]cyclohexyl}methyl)carbamate]"
900,4580,"CN(C)CCN1CCN(c2cc(C(=O)NC[C@H]3CC[C@H](CNC(=O)OC(C)(C)C)CC3)c3ccccc3n2)CC1=O [Example 219, tert-Butyl {[trans-4-({[(2-{4-[2-(dimethylamino)ethyl]-3-oxopiperazin-1-yl}quinolin-4-yl)carbonyl]amino}methyl)cyclohexyl]methyl}carbamate]"
360,1080,"CC(C)(C)OC(=O)NC[C@H]1CC[C@H](CNC(=O)c2cc(-c3cccnc3)nc(-c3cccc(CN)c3)c2)CC1 [Example 240, tert-Butyl [(trans-4-{[({6-[3-(aminomethyl)phenyl]-2,3′-bipyridin-4-yl}carbonyl)amino]methyl}cyclohexyl)methyl]carbamate]"
110,920,"COC1CN(CCC2CCN(c3cc(C(=O)NC[C@H]4CC[C@H](CNC(=O)OC(C)(C)C)CC4)c4ccccc4n3)CC2)C1 [Example 229, tert-Butyl{[trans-4-({[(2-{4-[2-(3-methoxyazetidin-1-yl)ethyl]piperidin-1-yl}quinolin-4-yl)carbonyl]amino}-methyl)cyclohexyl]-methyl}carbamate]"
140,1310,"CN(C)CC(O)CC1CCN(c2cc(C(=O)NC[C@H]3CC[C@H](CNC(=O)OC(C)(C)C)CC3)c3ccccc3n2)CC1 (stereo partly drawn) [Example 205, tert-Butyl {[trans-4-({[(2-{4-[3-(dimethylamino)-2-hydroxypropyl]piperidin-1-yl}quinolin-4-yl)carbonyl]amino}methyl)cyclohexyl]methyl}carbamate]"
80,700,"CC(C)(C)OC(=O)NC[C@H]1CC[C@H](CNC(=O)c2cc(N3CCC(CCN4CCCC4)CC3)nc3ccccc23)CC1 [Example 231, tert-Butyl[(trans-4-{[({2-[4-(2-pyrrolidin-1-ylethyl)piperidin-1-yl]quinolin-4-yl}carbonyl)amino]-methyl}cyclohexyl)-methyl]carbamate]"
720,3550,"CN1CCC(COc2cc(C(=O)NC[C@H]3CC[C@H](CNC(=O)OC(C)(C)C)CC3)c3ccccc3n2)CC1 [Example 216, tert-Butyl [(trans-4-{[({2-[(1-methylpiperidin-4-yl)methoxy]quinolin-4-yl}carbonyl)amino]methyl}cyclohexyl)methyl]-carbamate]"

SMILES,IC50 [1] [nM],IC50 [2] [nM]
"CC(CNc1ccc(-c2cc(C(=O)NC[C@H]3CC[C@H](CNC(=O)OC(C)(C)C)CC3)c3ccccc3n2)cn1)C(=O)O (relative stereo) [Example 158, 3-{[5-(4-{[(trans-4-{[(tert-Butoxycarbonyl)amino]methyl}cyclohexyl)methyl]-carbamoyl}quinolin-2-yl)pyridin-2-yl]amino}-2-methyl-propanoic acid]",1240,3870
